Reference: ChEMBL document CHEMBL2440005, “Discovery and structure-activity relationships of 6-(benzoylamino)benzoxaboroles as orally active anti-inflammatory agents” (Bioorg Med Chem Lett, 2013)
The source made the active and inactive calls. No cut-off for these calls is given here.

What was measured:
[1] = test system: PBMC; test: Antiinflammatory activity in human PBMC assessed as inhibition of LPS-induced IL-6 release incubated for 15 mins prior to LPS-challenge measured after 24 hrs by HTRF assay; assay type: functional, cell-based
[2] = test system: PBMC; test: Antiinflammatory activity in human PBMC assessed as inhibition of LPS-induced IL-1beta release incubated for 15 mins prior to LPS-challenge measured after 24 hrs by HTRF assay; assay type: functional, cell-based
[3] = test system: PBMC; test: Antiinflammatory activity in human PBMC assessed as inhibition of LPS-induced TNFalpha release incubated for 15 mins prior to LPS-challenge measured after 24 hrs by HTRF assay; assay type: functional, cell-based
[4] = test system: Mus musculus; test: Toxicity in mouse assessed as change in body weight at 3 mg/kg, po qd after 20 days relative to untreated control; assay type: organism-based; parameters: dose 3 mg/kg, route oral; conditions: in vivo, 480 h
[5] = test system: Mus musculus; test: Antiinflammatory activity in collagen-induced arthritis mouse model at 3 mg/kg, po qd after 20 days; assay type: functional, organism-based; parameters: dose 3 mg/kg

Compound | IC50 [1] [µM] | IC50 [2] [µM] | IC50 [3] [µM] | Activity [4] | inhibition [5]
O=C(Nc1ccc2c(c1)B(O)OC2)c1ccccc1Cl | > 100 | > 100 | > 100 |  | 
O=C(Nc1ccc2c(c1)B(O)OC2)c1ccccc1F | > 10 | > 10 | > 100 |  | 
O=C(Nc1ccc2c(c1)B(O)OC2)c1c(F)cccc1C(F)(F)F | 0.37 | 0.18 | 1.2 |  | 
O=C(Nc1ccc2c(c1)B(O)OC2)c1cccc(C(F)(F)F)c1 | > 10 | > 10 | > 10 |  | 
O=C(Nc1ccc2c(c1)B(O)OC2)c1c(F)cccc1Cl | 4.9 | 3.1 | 15 |  | 
O=C(Nc1ccc2c(c1)B(O)OC2)c1cccc(Cl)c1F | > 100 | > 100 | > 100 |  | 
O=C(Nc1ccc2c(c1)B(O)OC2)c1ccc(C(F)(F)F)cc1F | > 100 | > 100 | > 100 |  | 
O=C(Nc1ccc2c(c1)B(O)OC2)c1cc(C(F)(F)F)ccc1F | > 100 | > 100 | > 100 |  | 
O=C(Nc1ccc2c(c1)B(O)OC2)c1ccccc1 | > 100 | > 100 | > 100 |  | 
O=C(Nc1ccc2c(c1)B(O)OC2)c1cc(C(F)(F)F)ccc1C(F)(F)F | 3 | 2 | 6.3 |  | 
OB1OCc2ccc(NCc3ccccc3C(F)(F)F)cc21 | > 10 | > 10 | > 10 |  | 
COc1ccccc1C(=O)Nc1ccc2c(c1)B(O)OC2 | > 100 | > 100 | 36 |  | 
O=C(Nc1ccc2c(c1)B(O)OC2)c1cc(F)ccc1C(F)(F)F | 8.2 | 11 | 28 |  | 
C[C@]12C=CC(=O)C=C1CC[C@@H]1[C@@H]2[C@@H](O)C[C@@]2(C)[C@H]1CC[C@]2(O)C(=O)CO [PREDNISOLONE] |  |  |  | Non-toxic | Active
O=C(Nc1ccc2c(c1)B(O)OC2)c1cccc(C(F)(F)F)c1F | > 100 | > 100 | 99 |  | 
O=C(Nc1ccc2c(c1)B(O)OC2)c1ccccc1-c1ccccc1 | > 100 | > 100 | > 100 |  | 
O=C(Nc1ccc2c(c1)B(O)OC2)c1ccc(C(F)(F)F)cc1 | > 100 | > 100 | > 100 |  | 
O=C(Nc1ccc2c(c1)B(O)OC2)Nc1ccccc1C(F)(F)F | > 10 | > 10 | > 10 |  | 
O=S(=O)(Nc1ccc2c(c1)B(O)OC2)c1ccccc1C(F)(F)F | > 10 | > 10 | > 10 |  | 
Cc1ccccc1C(=O)Nc1ccc2c(c1)B(O)OC2 | > 100 | > 100 | > 100 |  | 
O=C(Nc1ccc2c(c1)B(O)OC2)c1ccccc1C(F)(F)F | 4.4 | 2.1 | 7.2 |  | 
O=C(Nc1ccc2c(c1)B(O)OC2)c1ccc(C(F)(F)F)cc1C(F)(F)F | 8.3 | 5.3 | 10 |  | 
O=C(Nc1ccc2c(c1)B(O)OC2)c1ccc(F)cc1C(F)(F)F | 5.6 | 3.2 | 13 |  | 
O=C(Nc1ccc2c(c1)B(O)OC2)c1ccccc1OC(F)(F)F | > 100 | > 100 | > 100 |  | 
